Experiments:
Experiment in all cases: microbe, parasite or virus in culture
Type in all cases: cell-based, SARS-CoV-2
[1] = test system: pseudovirus carrying spike protein of the beta variant; settings: read-out: EC50 (nM) (Beta)
[2] = test system: pseudovirus carrying spike protein of the alpha variant; settings: read-out: EC50 (nM) (Alpha)
[3] = test system: pseudoviruses carrying spike proteins of different variants; settings: Severe acute respiratory syndrome coronavirus 2, read-out: EC50 values against different variants (span)
[4] = test system: pseudovirus carrying spike protein of the delta variant; settings: read-out: EC50 (nM) (Delta)
[5] = test system: pseudovirus carrying spike protein of the omicron variant; settings: read-out: EC50 (nM) (Omicron)

| Compound | EC50 [1] [nM] | EC50 [2] [nM] | EC50 [3] [nM] | EC50 [4] [nM] | EC50 [5] [nM] |
| --- | --- | --- | --- | --- | --- |
| C[C@@H]1CCO[C@H]2Cn3cc(C(=O)NCc4ccc(F)cc4F)c(=O)c(O)c3C(=O)N12 [Dolutegravir sodium] | 10.2 | 15.8 | 10.2 to 22.9 | 3 | 2.6 |
| Cc1cc(C#N)cc(C)c1Oc1nc(Nc2ccc(C#N)cc2)nc(N)c1Br [Etravirine] | 4.5 | 4.9 | 4.5 to 5.8 | 2.9 | 3 |

— paper PMC8999638, “Identification of Entry Inhibitors against Delta and Omicron Variants of SARS-CoV-2” (International Journal of Molecular Sciences, 2022)
